Results published in PubChem BioAssay AID248 (DTP/NCI, 2004).
Inconclusive results and toxic doses are left out. Cut-off read from the data, not from the text of the source: active = T/C of 150% or more; inactive = T/C below 125%.

Tested on: L1210 leukemia ip in BDF1 mice, survival T/C
Assay: NCI In Vivo Anticancer Drug Screen. Data for tumor model L1210 Leukemia (intraperitoneal) in B6D2F1 (BDF1) mice
Details: endpoint: mean survival time, higher = longer survival
How it was run: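 Tumor was transplanted into mice, which were then dosed with test compound or vehicle alone. Survival was recorded for each group, and the treated figure was expressed relative to the control figure.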

[1] = dose: 100.0 mg/kg/injection, schedule: Q01DX009 (ip), vehicle: Klucel (hydroxypropylcellulose) (HPC)
[2] = dose: 100.0 mg/kg/injection, schedule: Q04DX003 (ip), vehicle: Klucel (hydroxypropylcellulose) (HPC)
[3] = dose: 200.0 mg/kg/injection, schedule: Q01DX009 (ip), vehicle: Klucel (hydroxypropylcellulose) (HPC)
[4] = dose: 200.0 mg/kg/injection, schedule: Q04DX003 (ip), vehicle: Klucel (hydroxypropylcellulose) (HPC)
[5] = dose: 400.0 mg/kg/injection, schedule: Q01DX009 (ip), vehicle: Klucel (hydroxypropylcellulose) (HPC)
[6] = dose: 50.0 mg/kg/injection, schedule: Q01DX009 (ip), vehicle: saline
[7] = dose: 100.0 mg/kg/injection, schedule: Q01DX001 (ip), vehicle: Klucel (hydroxypropylcellulose) (HPC)
[8] = dose: 100.0 mg/kg/injection, schedule: Q04DX003 (ip), vehicle: saline
[9] = dose: 200.0 mg/kg/injection, schedule: Q01DX001 (ip), vehicle: Klucel (hydroxypropylcellulose) (HPC)
[10] = dose: 200.0 mg/kg/injection, schedule: Q04DX003 (ip), vehicle: saline
[11] = dose: 400.0 mg/kg/injection, schedule: Q01DX001 (ip), vehicle: Klucel (hydroxypropylcellulose) (HPC)
[12] = dose: 400.0 mg/kg/injection, schedule: Q04DX003 (ip), vehicle: saline

Measured: T/C

CCCCCCCCCCCCCCn1cnc2c(N)ncnc21
inactive: dose: 12.5 mg/kg/injection, schedule: Q01DX005 (ip), vehicle: other 101 % of control | dose: 25.0 mg/kg/injection, schedule: Q01DX005 (ip), vehicle: other 111 % of control | dose: 50.0 mg/kg/injection, schedule: Q01DX005 (ip), vehicle: other 101 % of control | dose: 100.0 mg/kg/injection, schedule: Q01DX005 (ip), vehicle: other 106 % of control

Cc1ccccc1C1SCCCS1
inactive: dose: 100.0 mg/kg/injection, schedule: Q04DX003 (ip), vehicle: saline with Tween-80 101 % of control | dose: 200.0 mg/kg/injection, schedule: Q04DX003 (ip), vehicle: saline with Tween-80 96 % of control | dose: 400.0 mg/kg/injection, schedule: Q04DX003 (ip), vehicle: saline with Tween-80 107 % of control

CC12C=CC(C=C1)C(O)C2 (stereo not given)
inactive: [1] 101 % of control | [2] 97 % of control | [3] 114 % of control | [4] 96 % of control | [5] 90 % of control | dose: 400.0 mg/kg/injection, schedule: Q04DX003 (ip), vehicle: Klucel (hydroxypropylcellulose) (HPC) 94 % of control

O=Cc1c[nH]c(=O)[nH]c1=O
inactive: [6] 109 % of control | [7] 94 % of control | dose: 100.0 mg/kg/injection, schedule: Q01DX009 (ip), vehicle: saline 103 % of control | [8] 95 % of control | [9] 105 % of control | dose: 200.0 mg/kg/injection, schedule: Q01DX009 (ip), vehicle: saline 106 % of control | [10] 103 % of control | [11] 101 % of control | [12] 95 % of control

CN(C)c1ccc(/C=C\c2cc(=O)[nH]c3ccccc23)cc1
inactive: dose: 50.0 mg/kg/injection, schedule: Q01DX009 (ip), vehicle: Klucel (hydroxypropylcellulose) (HPC) 100 % of control | [1] 102 % of control | [3] 97 % of control | [5] 97 % of control

CC(C)NCCC#N
inactive: [8] 104 % of control | [10] 111 % of control | [12] 108 % of control

CCCNC(C)(C)C(SSSC(c1cccs1)C(C)(C)NCCC)c1cccs1 (stereo not given)
inactive: dose: 12.5 mg/kg/injection, schedule: Q01DX009 (ip), vehicle: saline 101 % of control | dose: 12.5 mg/kg/injection, schedule: Q04DX003 (ip), vehicle: Klucel (hydroxypropylcellulose) (HPC) 96 % of control | dose: 25.0 mg/kg/injection, schedule: Q01DX009 (ip), vehicle: saline 95 % of control | dose: 25.0 mg/kg/injection, schedule: Q04DX003 (ip), vehicle: Klucel (hydroxypropylcellulose) (HPC) 106 % of control | [6] 92 % of control | dose: 50.0 mg/kg/injection, schedule: Q04DX003 (ip), vehicle: Klucel (hydroxypropylcellulose) (HPC) 96 % of control | dose: 75.0 mg/kg/injection, schedule: Q01DX009 (ip), vehicle: Klucel (hydroxypropylcellulose) (HPC) 98 % of control | dose: 75.0 mg/kg/injection, schedule: Q01DX009 (ip), vehicle: saline 88 % of control | dose: 115.0 mg/kg/injection, schedule: Q01DX009 (ip), vehicle: Klucel (hydroxypropylcellulose) (HPC) 97 % of control | dose: 170.0 mg/kg/injection, schedule: Q01DX009 (ip), vehicle: Klucel (hydroxypropylcellulose) (HPC) 96 % of control | dose: 170.0 mg/kg/injection, schedule: Q01DX009 (ip), vehicle: saline 89 % of control

CNc1nnnn1-c1ccccc1C
inactive: [7] 93 % of control | [9] 98 % of control | [11] 105 % of control

CCCCCCCC[As](=O)(O)CCCCCCCC
inactive: dose: 50.0 mg/kg/injection, schedule: Q01DX001 (ip), vehicle: saline 101 % of control | dose: 100.0 mg/kg/injection, schedule: Q01DX001 (ip), vehicle: saline 101 % of control | dose: 200.0 mg/kg/injection, schedule: Q01DX001 (ip), vehicle: saline 98 % of control | dose: 400.0 mg/kg/injection, schedule: Q01DX001 (ip), vehicle: saline 107 % of control

Cc1ccc(N=Nc2c(O)ccc3ccccc23)c([N+](=O)[O-])c1
inactive: dose: 100.0 mg/kg/injection, schedule: Q01DX001 (ip), vehicle: other 96 % of control | dose: 100.0 mg/kg/injection, schedule: Q04DX003 (ip), vehicle: other 95 % of control | dose: 200.0 mg/kg/injection, schedule: Q01DX001 (ip), vehicle: other 95 % of control | dose: 200.0 mg/kg/injection, schedule: Q04DX003 (ip), vehicle: other 91 % of control | dose: 400.0 mg/kg/injection, schedule: Q01DX001 (ip), vehicle: other 96 % of control | dose: 400.0 mg/kg/injection, schedule: Q04DX003 (ip), vehicle: other 93 % of control

COC(=O)CCC(NC(=O)OCc1ccccc1)C(=O)O (stereo not given)
inactive: [2] 99 % of control | [4] 112 % of control
